# Results taken from patent publication US20230137956A1, “ALPHA SUBSTITUTED STAT INHIBITORS AND COMPOSITIONS THEREOF” (JANPIX LIMITED, priority 2020, published 2023).
# Like-named read-outs stand apart in the source and are kept apart here.
# What was measured:
# MV4-11 cells = assay: MV4-11 Cell Cytotoxicity Assay; format: cell-based, human; details: 72 h incubation, CellTiter-Blue, read-out: IC50-MV-4-11
# Experimental: In some embodiments, the potency of the STAT5 inhibitors are evaluated by an in vitro assay such as MV4-11 Cell Cytotoxicity Assay. MV4-11 cells were grown in Iscove's Modified Dulbecco's Medium (IMDM) supplemented with 10% fetal bovine serum (FBS). 10,000 cells were plated per well in 96-well flat-bottom sterile culture plates with low-evaporation lids. After 24 h, inhibitors and a vehicle control (0.5% DMSO) were added and the cells were incubated for 72 h at 37° C. in 5% CO2. Inhibitors were examined in triplicate at a maximal concentration of 50 μM, followed by 1:2 dilutions in subsequent wells (25, 12.5, 6.25, 3.125, 1.5625, 0.78125, 0.390625, 0.195313 and 0.097656 μM). After 72 h, the wells were treated with CellTiter-Blue® (20 μL/well), and the plates were incubated using standard cell culture conditions for 1 hour. Fluorescence was measured at 560/590 nm.
# glutathione (GSH) = assay: Reactivity Profiling with Glutathione (GSH); format: in vitro ADME; details: cell culture medium (IMDM, 10% FBS) with 5 mM glutathione, 25 μM inhibitor, IMDM with 10% FBS, 0.5% DMSO, 25° C., HPLC, read-out: T1/2-GSH
# Experimental: In some embodiments, metabolic stability of the compounds is evaluated according to their reactivity profiles with GSH.
# 3.5 μL of 5 mM stocking solution of the inhibitors in DMSO was added to 697.5 μL of Iscove's Modified Dulbecco's Medium (IMDM) supplemented with 10% FBS and antibiotic antimycotic solution, with 5 mM glutathione to afford a final concentration of 25 μM inhibitor with 0.5% DMSO. The solution was then immediately placed in the sample tray at 25° C. Sample was analyzed at pre-defined intervals, typically every 1.5 hours, for up to four injections, by HPLC, included at time zero, without further pre-treatment. For each inhibitor, its peak is integrated at different time points and compared to the time zero injection in order to obtain a percentage remaining. Half-life is calculated according to a first order reaction kinetic taking into account those time points for which remaining percentage of inhibitor is above 40%, using the formula: t½=Ln(2)/k, where k is the slope of the linear plot of Ln[Inhibitor] vs time, according to the formula: Ln[A]=Ln[A]0−kt, where [A] is the value resulting from the integration at each time point, [A]0 the value at time zero, and t the time. For each inhibitor, both replicates are averaged and the resulting t½ reported. Selective reactivity against GSH in particular is confirmed by incubation of the inhibitor in the same solution without the presence of GSH, and single analysis after a time longer than the latest time point analyzed for the samples with GSH.
half-life at 25 μM (glutathione (GSH)),Compound,"IC50 (MV4-11 cells; Homo sapiens, MV4-11, 72 h)",also measured
–,"CC(C)C[C@H](C(=O)N(Cc1cc(C2CC2)cc(C(C)(C)C)c1)c1ccc(C(=O)O)c(O)c1)N(Cc1ccc(Cl)cc1)S(=O)(=O)c1c(F)c(F)c(F)c(F)c1F [Compound 1001, (R)-4-(N-(3-(tert-butyl)-5-cyclopropylbenzyl)-2-(N-(4-chlorobenzyl)-(2,3,4,5,6-pentafluorophenyl)sulfonamido)-4-methylpentanamido)-2-hydroxybenzoic acid]",–,IC50 (MV4-11 cells): 1e-05 to 5 µM
–,"C[C@@H](C(=O)N(Cc1cc(C2CC2)cc(C(C)(C)C)c1)c1ccc(C(=O)O)c(O)c1)N(Cc1ccc(Cl)cc1)S(=O)(=O)c1c(F)c(F)c(F)c(F)c1F [Compound 1002, (S)-4-(N-(3-(tert-butyl)-5-cyclopropylbenzyl)-2-(N-(4-chlorobenzyl)-(2,3,4,5,6-pentafluorophenyl)sulfonamido)propanamido)-2-hydroxybenzoic acid]",1e-05 to 5 µM,–
–,"CC(C)[C@@H](C(=O)N(Cc1cc(C2CC2)cc(C(C)(C)C)c1)c1ccc(C(=O)O)c(O)c1)N(Cc1ccc(Cl)cc1)S(=O)(=O)c1c(F)c(F)c(F)c(F)c1F [Compound 1003, (S)-4-(N-(3-(tert-butyl)-5-cyclopropylbenzyl)-2-(N-(4-chlorobenzyl)-(2,3,4,5,6-pentafluorophenyl)sulfonamido)-3-methylbutanamido)-2-hydroxybenzoic acid]",1e-05 to 5 µM,–
–,"C[C@H](C(=O)N(Cc1cc(C2CC2)cc(C(C)(C)C)c1)c1ccc(C(=O)O)c(O)c1)N(Cc1ccc(Cl)cc1)S(=O)(=O)c1c(F)c(F)c(F)c(F)c1F [Compound 1004, (R)-4-(N-(3-(tert-butyl)-5-cyclopropylbenzyl)-2-(N-(4-chlorobenzyl)-(2,3,4,5,6-pentafluorophenyl)sulfonamido)propanamido)-2-hydroxybenzoic acid]",5 to 10 µM,–
–,"CC(C)C[C@H](C(=O)N(Cc1cc(C2CC2)cc(C(C)(C)C)c1)c1ccc(C(=O)O)c(O)c1)N(Cc1ccc(Cl)cc1)S(=O)(=O)c1c(F)c(F)c(F)c(F)c1F [Compound 1005, (R)-4-(N-(3-(tert-butyl)-5-cyclopropylbenzyl)-2-(N-(4-chlorobenzyl)-(2,3,4,5,6-pentafluorophenyl)sulfonamido)-4-methylpentanamido)-2-hydroxybenzoic acid]",–,IC50 (MV4-11 cells): 5 to 10 µM
2.37 to 9.23 h,"C[C@@H](C(=O)N(Cc1cc(C2CC2)cc(C2CC2)c1)c1ccc(C(=O)O)cc1OC1CC1)N(Cc1ccc(F)cc1Cl)S(=O)(=O)c1c(F)c(F)c(F)c(F)c1F [Compound 1006, (S)-4-(2-(N-(2-chloro-4-fluorobenzyl)-(2,3,4,5,6-pentafluorophenyl)sulfonamido)-N-(3,5-dicyclopropylbenzyl)propanamido)-3-cyclopropoxybenzoic acid]",–,–
2.37 to 9.23 h,"C[C@@H](C(=O)N(Cc1cc(C2CC2)cc(N2CCCC2)c1)c1ccc(C(=O)O)cc1C1CC1)N(Cc1ccc(F)cc1Cl)S(=O)(=O)c1c(F)c(F)c(F)c(F)c1F [Compound 1008, (S)-4-(2-(N-(2-chloro-4-fluorobenzyl)-(2,3,4,5,6-pentafluorophenyl)sulfonamido)-N-(3-cyclopropyl-5-(pyrrolidin-1-yl)benzyl)propan-amido)-3-cyclopropylbenzoic acid]",–,–
9.23 to 1670 h,"C[C@H](C(=O)N(Cc1cc(C2CC2)cc(N2CCCC2)c1)c1ccc(C(=O)O)cc1C1CC1)N(Cc1ccc(F)cc1Cl)S(=O)(=O)c1c(F)c(F)c(F)c(F)c1F [Compound 1009, (R)-4-(2-(N-(2-chloro-4-fluorobenzyl)-(2,3,4,5,6-pentafluorophenyl)sulfonamido)-N-(3-cyclopropyl-5-(pyrrolidin-l-yl)benzyl)propan-amido)-3-cyclopropylbenzoic acid]",–,–
